Assay results from patent publication US11511054B2, “Use of antistatic materials in the airway for thermal aerosol condensation process” (Alexza Pharmaceuticals, Inc., priority 2015, dated 2022).

Columns and labels:
[1] = Net charge measurement of thermal condensation aerosol (aerosol electrometer, Staccato single dose); type: physicochemical; conditions: for Total net charge of aerosol particles (in words): standard housing
[2] = Aerosol charge testing with heat packages, screening foils and funnels (Examples 2-3, 12); conditions: for Aerosol charge relative to Alprazolam: Example 2, aerosol electrometer
[3] = Airway deposition and aerosol charges for Permastat, Permastat Plus and standard airway material (Example 38); conditions: 1 mg, 28.3 LPM, mean of 4 devices
Source text: Purpose: • To find out the aerosol charge generated from Permastat and Permastat Plus airways and to compare that to normal airway (control)
Materials/Equipment • Standard airway material: makrolon polycarbonate • Permastat: surface resistivity ˜1E11 ohm/sq • Permastat Plus: surface resistivity ˜1E9 ohm/sq • Drug: alprazolam

[4] = Airway deposition and aerosol charges of normal, metallized and Permastat Plus airways (Example 40); type: physicochemical; conditions: 28.3 LPM
Source text: Purpose • To compare aerosol charge and airway deposition of various airways: normal airway, Metallizedairway(SS*/Cu/Cu/SS), and Permastat Plus airway.

[5] = Total net charge vs. airway housing deposition, standard vs anti-static polycarbonate housing; conditions: for Net Charge: mean ± SD, N-4
Procedure: Alprazolam device versions were tested in this part of the study. The first version (used in Part 1) used an airway housing made of polycarbonate with a surface resistivity of—1×10 18 0/sq. The second version used an airway housing made of a lower resistivity polycarbonate (−1×1011 0/sq) to provide charge dissipation.

[6] = no applied potential to airway housing, mean ± SD

Clc1ccc2c(c1)C(c1ccccc1)=NCc1nncn1-2 [Estazolam]
Net Charge [1, 6]: −202 ± 3 pC/mg | Total net charge of aerosol particles (in words) [1]: substantial

Cc1nnc2n1-c1ccc(Cl)cc1C(c1ccccc1)=NC2 [Alprazolam]
Aerosol charge (in words) ([2]; Staccato heat packages with Staticide): small and negative | Aerosol charge (in words) ([2]; Staccato heat packages without Staticide): large and negative | Aerosol charge polarity ([2]; partially Staticide-coated airway): positive polarity | Mean charge/mass ([3]; Permastat Plus airway): −2.2 pC/mg | Mean charge/mass ([3]; Permastat airway): −46.2 pC/mg | Mean charge/mass ([3]; control (normal) airway): −279.2 pC/mg | Ave Aerosol Charge ([4]; Metallized airway, ESD gun 16 kV+): −111.63 pC | Ave Aerosol Charge ([4]; Metallized airway, no ESD gun): −181.57 pC | Ave Aerosol Charge ([4]; Normal airway, ESD gun 16 kV+): −220.405 pC | Ave Aerosol Charge ([4]; Normal airway, no ESD gun): −220.645 pC | Ave Aerosol Charge ([4]; Permastat Plus airway, ESD gun 16 kV+): −21.895 pC | Ave Aerosol Charge ([4]; Permastat Plus airway, no ESD gun): −16.57 pC | Net Charge ([5]; anti-static polycarbonate airway housing): −2.2 ± 1 | Total net charge, anti-static housing relative to standard housing (fold less) ([5]; anti-static vs standard housing): 100 fold | Net Charge ([5]; standard polycarbonate airway housing): −279 ± 45 | Net Charge [1, 6]: −252 ± 59 pC/mg | Total net charge of aerosol particles (in words) [1]: relatively large net negative charge | Total net charge of aerosol particles (in words) ([1]; listed as ALP): net negatively charged | Total net charge of aerosol particles (in words) ([1]; listed as alprazolam): substantial

CN1C(=O)CC(=O)N(c2ccccc2)c2cc(Cl)ccc21 [Clobazam]
Net Charge [1, 6]: 0 ± 0 pC/mg

CN1CCN(CCCN2c3ccccc3Sc3ccc(Cl)cc32)CC1 [Prochlorperazine]
Aerosol charge relative to Alprazolam [2]: about one order of magnitude lower | Net Charge [1, 6]: 27 ± 3 pC/mg

CCCCNc1cc(C(=O)O)cc(S(N)(=O)=O)c1Oc1ccccc1 [Bumetanide]
Aerosol charge relative to Alprazolam [2]: about one order of magnitude lower

CCN(C(C)=O)c1cccc(-c2ccnc3c(C#N)cnn23)c1 [Zaleplon]
Degree of aerosol charge (in words) ([2]; Example 3): low degree of charge | Net Charge ([1]; +16 kV applied to airway housing): −15 ± 6 pC/mg | Net Charge [1, 6]: 7 ± 1 pC/mg | Net Charge ([1]; −16 kV applied to airway housing): 2 ± 8 pC/mg

CN1C(=O)CN=C(c2ccccc2)c2cc(Cl)ccc21 [Diazepam]
Net Charge [1, 6]: −1 ± 1 pC/mg

Cc1nnc2n1-c1ccc(Cl)cc1C(c1ccccc1Cl)=NC2 [Triazolam]
Net Charge [1, 6]: −158 ± 13 pC/mg | Total net charge of aerosol particles (in words) [1]: substantial
